Measured values reported in ChEMBL document CHEMBL1201862, “PubChem BioAssay data set” (2004).
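Values below derive from 48-hour exposures of cells grown in 96-well plates, with endpoints linearly interpolated between the two concentrations bracketing the appropriate inhibition level. Abbreviation: GI50, concentration required for 50% inhibition of growth.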 Activity calls are given as the source filed them. Cut-off read from the data, not from the text of the source: active = GI50 up to about 1.1 µM and inactive = higher.

Assays:
Experiment in all cases: growth of human tumour cells (NCI), 48 h
[1] = test system: SK-MEL-2
[2] = test system: SK-OV-3
[3] = test system: MDA-MB-231
[4] = test system: OVCAR-5
[5] = test system: SW-620
[6] = test system: MCF7
[7] = test system: MDA-N
[8] = test system: RXF 393
[9] = test system: ACHN
[10] = test system: NCI-H522
[11] = test system: SNB-19
[12] = test system: NCI-H460
[13] = test system: IGROV-1
[14] = test system: MOLT-4
[15] = test system: HCT-15
[16] = test system: M14
[17] = test system: COLO 205
[18] = test system: HL-60
[19] = test system: OVCAR-3

## Nn1c(CCCCCCCCc2nnc(COc3c(O)ccc4ccccc34)n2N)nnc1COc1c(O)ccc2ccccc12
[1]
  GI50: > 100 µM (inactive)
[2]
  GI50: > 100 µM (inactive)
[3]
  GI50: > 100 µM (inactive)
[4]
  GI50: > 100 µM (inactive)
[5]
  GI50: > 100 µM (inactive)
[6]
  GI50: > 100 µM (inactive)
[7]
  GI50: > 100 µM (inactive)
[8]
  GI50: 84.3 µM (inactive)
[9]
  GI50: > 100 µM (inactive)
[10]
  GI50: > 100 µM (inactive)
[11]
  GI50: > 100 µM (inactive)
[12]
  GI50: 57.9 µM (inactive)
[13]
  GI50: > 100 µM (inactive)
[14]
  GI50: > 100 µM (inactive)
[15]
  GI50: > 100 µM
[16]
  GI50: > 100 µM (inactive)
[17]
  GI50: > 100 µM (inactive)

## Cc1ccc(NC(=O)C(=O)C2C(=O)C3=C(CC2(C)C)NC2C=CC=CC2S3)c(C)c1 (configuration not stated)
[1]
  GI50: > 100 µM (inactive)
[2]
  GI50: > 100 µM (inactive)
[3]
  GI50: 53.5 µM (inactive)
[5]
  GI50: > 100 µM (inactive)
[6]
  GI50: > 100 µM (inactive)
[7]
  GI50: > 100 µM (inactive)
[8]
  GI50: > 100 µM (inactive)
[9]
  GI50: > 100 µM (inactive)
[10]
  GI50: > 100 µM (inactive)
[11]
  GI50: > 100 µM (inactive)
[12]
  GI50: > 100 µM (inactive)
[13]
  GI50: 49.3 µM (inactive)
[14]
  GI50: 99.8 µM (inactive)
[15]
  GI50: > 100 µM
[18]
  GI50: > 100 µM (inactive)
[17]
  GI50: > 100 µM (inactive)

## COc1ccc(/N=C/N(C)C)c(C)c1
[19]
  GI50: 2.36 µM (inactive)
[1]
  GI50: 5.15 µM (inactive)
[2]
  GI50: 18.7 µM (inactive)
[3]
  GI50: 5.83 µM (inactive)
[4]
  GI50: 20.5 µM (inactive)
[6]
  GI50: 8.26 µM (inactive)
[7]
  GI50: 6.18 µM (inactive)
[8]
  GI50: 10.6 µM (inactive)
[9]
  GI50: 18.7 µM (inactive)
[10]
  GI50: 2.43 µM (inactive)
[11]
  GI50: 21.6 µM (inactive)
[13]
  GI50: 9.48 µM (inactive)
[14]
  GI50: 2.6 µM (inactive)
[15]
  GI50: 35.3 µM
[16]
  GI50: 13.6 µM (inactive)
[18]
  GI50: 0.13 µM (active)
[17]
  GI50: 10.5 µM (inactive)

## Clc1ccc2nc3[nH]nc(Cl)c3nc2c1
[19]
  GI50: 66.8 µM (inactive)
[1]
  GI50: 40.6 µM (inactive)
[2]
  GI50: 41.9 µM (inactive)
[3]
  GI50: 57.7 µM (inactive)
[4]
  GI50: 48.1 µM (inactive)
[5]
  GI50: 72.6 µM (inactive)
[6]
  GI50: 59.8 µM (inactive)
[7]
  GI50: 76.9 µM (inactive)
[8]
  GI50: 35 µM (inactive)
[9]
  GI50: 52.8 µM (inactive)
[11]
  GI50: 45.6 µM (inactive)
[12]
  GI50: 40.1 µM (inactive)
[14]
  GI50: 30.5 µM (inactive)
[15]
  GI50: > 100 µM
[16]
  GI50: 70.3 µM (inactive)
[17]
  GI50: 52.5 µM (inactive)

## CC(=O)NC1C(OCC(=O)NCCNc2ccc([N+](=O)[O-])c3[nH]c4ccccc4c(=O)c23)C(O)C(CO)OC1(C)OCc1ccccc1 (configuration not stated)
[19]
  GI50: > 100 µM (inactive)
[1]
  GI50: > 100 µM (inactive)
[2]
  GI50: > 100 µM (inactive)
[3]
  GI50: > 100 µM (inactive)
[4]
  GI50: > 100 µM (inactive)
[5]
  GI50: > 100 µM (inactive)
[6]
  GI50: > 100 µM (inactive)
[7]
  GI50: > 100 µM (inactive)
[8]
  GI50: > 100 µM (inactive)
[9]
  GI50: > 100 µM (inactive)
[10]
  GI50: > 100 µM (inactive)
[11]
  GI50: > 100 µM (inactive)
[12]
  GI50: 50.4 µM (inactive)
[13]
  GI50: > 100 µM (inactive)
[14]
  GI50: > 100 µM (inactive)
[15]
  GI50: > 100 µM
[16]
  GI50: > 100 µM (inactive)
[17]
  GI50: > 100 µM (inactive)

## O=[N+]([O-])c1ccc2c(c1)c(OCc1ccccc1)nn2Cc1ccccc1
[19]
  GI50: > 100 µM (inactive)
[1]
  GI50: > 100 µM (inactive)
[2]
  GI50: > 100 µM (inactive)
[3]
  GI50: > 100 µM (inactive)
[4]
  GI50: > 100 µM (inactive)
[5]
  GI50: > 100 µM (inactive)
[6]
  GI50: > 100 µM (inactive)
[7]
  GI50: > 100 µM (inactive)
[8]
  GI50: 34.2 µM (inactive)
[9]
  GI50: 43.8 µM (inactive)
[10]
  GI50: 23 µM (inactive)
[11]
  GI50: > 100 µM (inactive)
[12]
  GI50: > 100 µM (inactive)
[13]
  GI50: > 100 µM (inactive)
[14]
  GI50: 57 µM (inactive)
[15]
  GI50: 53 µM
[16]
  GI50: > 100 µM (inactive)
[18]
  GI50: > 100 µM (inactive)
